Here are results for one compound from patent US10155004B2, “17-hydroxy-17-pentafluoroethyl-estra-4,9(10)-dien-11-aryl derivatives, method of production thereof and use thereof for the treatment of diseases” (BAYER INTELLECTUAL PROPERTY GMBH, priority 2009, dated 2018).

For one data set, the system named is cardiovascular system. The data set is described as follows: Action on the cardiovascular system (incl. ECG) of anaesthetized beagle dogs. The data set is classed as in vivo. On the procedure:
EXAMPLE 20 INVESTIGATION OF THE ACTION ON THE CARDIOVASCULAR SYSTEM (INCL. ECG) OF ANAESTHETIZED BEAGLE DOGS
(11β,17β)-17-Hydroxy-11-[4-(methylsulphonyl)phenyl]-17-(pentafluoroethy)estra-4,9-dien-3-one, dissolved in a mixture of PEG 400 and HP-β-CD (60% PEG 400, 40% HP-β-CD 30%), was administered intravenously to anaesthetized female beagle dogs. The body weight of the dogs was >9 kg. 3 dogs were treated per group and additionally 3 dogs in the control group. 0.1; 0.33 and 1 mg/kg of the substance was administered in 3 consecutive infusions, in each case over a period of 30 minutes. The maximum amount of vehicle was 0.4 ml per kg for 30 minutes. Blood samples were taken from the animals at various time points. The highest plasma level (average for all 3 animals) was 1650 ng/ml at the end of the third infusion.

For a further data set, the system named is pregnant rats. The data set is described as follows: Abortion test on female rats (termination of early pregnancy). It is filed as in vivo, rat. The conditions noted are these: d5-d7 p.c., autopsy d9 p.c. On the procedure:
EXAMPLE 17 ABORTION TEST ON FEMALE RATS
The action of progesterone and of the progesterone receptor is a fundamental precondition for successful pregnancy or gestation in mammals. The progesterone-antagonistic action of the compounds according to the invention was tested on pregnant rats (6 rats per group) on day 5 to 7 post coitum with conventional housing and feeding conditions.
After successful hand mating, the pregnant animals (presence of sperm in the vaginal smear on day 1 of pregnancy=d1 p.c.) were randomized and divided into the treatment group and the control group. The animals then each received subcutaneously or orally 0.15; 0.5; 1.5 or 5 mg/kg of the test compound or 1.0 ml/kg of vehicle (benzyl benzoate/castor oil: 1+4 [v/v]) daily from day 5 to day 7 (d5-d7 p.c.).
Autopsy was carried out on day 9 (d9 p.c.). As a characteristic of progesterone receptor antagonistic action, the uterus was examined for the presence of nidation sites. Complete absence, or also the presence of pathological, haemorrhagic or otherwise abnormal nidation sites on day 9 (d9 p.c.) was assessed as abortion.

Data set [1] can be described thus: Chemical stability against temperature, light and oxidative stress. The data set is classed as physicochemical. Particulars: compared with analogue with alkanoyl or hydroxyalkanoyl group.
The target of data set [2] is T1, human progesterone receptor B (Homo sapiens, UniProt P06401).
T1 construct: expressed in transfected cells; host or cells: SK-N-MC human neuroblastoma cells, stably transfected
T1 sequence (P06401 1-933): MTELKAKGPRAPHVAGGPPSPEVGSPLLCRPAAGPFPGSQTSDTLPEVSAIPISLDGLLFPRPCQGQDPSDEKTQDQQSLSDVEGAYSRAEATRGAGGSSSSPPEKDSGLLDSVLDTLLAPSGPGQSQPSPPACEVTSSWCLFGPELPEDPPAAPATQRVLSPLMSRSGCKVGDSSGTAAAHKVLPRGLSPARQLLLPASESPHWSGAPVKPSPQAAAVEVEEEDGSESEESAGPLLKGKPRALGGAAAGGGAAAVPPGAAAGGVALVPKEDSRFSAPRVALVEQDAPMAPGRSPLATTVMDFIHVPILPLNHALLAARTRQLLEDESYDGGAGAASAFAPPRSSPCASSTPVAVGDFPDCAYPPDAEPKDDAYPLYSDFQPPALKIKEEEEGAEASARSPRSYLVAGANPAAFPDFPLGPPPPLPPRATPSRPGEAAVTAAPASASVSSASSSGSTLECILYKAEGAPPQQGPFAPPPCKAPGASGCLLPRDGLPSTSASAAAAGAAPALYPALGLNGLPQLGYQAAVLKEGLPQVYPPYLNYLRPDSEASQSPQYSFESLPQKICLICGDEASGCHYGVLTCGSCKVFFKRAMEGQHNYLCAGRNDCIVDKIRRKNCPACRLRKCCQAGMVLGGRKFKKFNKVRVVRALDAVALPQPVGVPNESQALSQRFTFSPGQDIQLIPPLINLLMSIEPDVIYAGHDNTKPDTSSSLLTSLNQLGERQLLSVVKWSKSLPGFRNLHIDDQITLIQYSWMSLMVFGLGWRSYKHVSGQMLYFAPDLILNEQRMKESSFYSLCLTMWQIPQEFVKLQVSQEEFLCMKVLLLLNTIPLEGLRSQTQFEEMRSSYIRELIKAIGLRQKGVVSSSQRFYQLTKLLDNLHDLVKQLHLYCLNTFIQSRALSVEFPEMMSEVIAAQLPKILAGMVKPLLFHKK
In words: Progesterone receptor-antagonistic action in stably transfected SK-N-MC cells, MTV-LUC reporter (PR-B). It is filed as cell-based. Particulars: antagonistic efficacy vs 0.1 nmol/l promegestone. The protocol: EXAMPLE 16 PROGESTERONE RECEPTOR-ANTAGONISTIC ACTION IN STABLE TRANSFECTANTS OF HUMAN NEUROBLASTOMA CELLS (SK-N-MC CELLS) WITH THE HUMAN PROGESTERONE A OR PROGESTERONE B RECEPTOR AND AN MTV-LUC REPORTER CONSTRUCT
SK-N-MC cells (human neuroblastoma cells), which have been stably transfected with plasmids, which express the human progesterone receptor B (pRChPR-B-neo) or the human progesterone receptor A (pRChPR-A-neo) and a reporter construct (pMMTV-LUC), were incubated for 24 hours either in the absence (negative control) or in the presence of increasing amounts of the respective test compound (0.01 nmol/l, 0.1 nmol/l 1 nmol/l, 10 nmol/l, 100 nmol/l and 1 μmol/l), in order to determine the agonistic efficacy. As positive control of reporter gene induction, the cells were treated with the synthetic gestagen promegestone (0.01 nmol/l, 0.1 nmol/l, 1 nmol/l, 10 nmol/l, 100 nmol/l and 1 μmol/l). For determination of the antagonistic activity, the cells were treated with 0.1 nmol/1 promegestone and additionally with increasing amounts of the respective test compound (0.01 nmol/l, 0.1 nmol/l, 1 nmol/l, 10 nmol/l, 100 nmol/l and 1 μmol/l). The activity of the LUC reporter gene (LUC=luciferase) was determined in the cell lysates and was measured as RLU (relative light units). All measured values are given as percentage efficacy and as EC50 or IC50 concentrations.
11β-(4-Acetylphenyl)-20,20,21,21,21-pentafluoro-17-hydroxy-19-nor-17α-pregna-4,9-dien-3-one and 20,20,21,21,21-pentafluoro-17-hydroxy-11β-[4-(hydroxyacetyl)phenyl]-19-nor-17α-pregna-4,9-dien-3-one, very potent and therefore preferred examples from WO98/34947 and WO2008/058767, were tested as comparative compounds along with the test compound.

Consider `C[C@]12C[C@H](c3ccc(S(C)(=O)=O)cc3)C3=C4CCC(=O)C=C4CC[C@H]3[C@@H]1CC[C@@]2(O)C(F)(F)C(F)(F)F` [Example 4, (11β,17β)-17-Hydroxy-11-[4-(methylsulphonyl)phenyl]-17-(pentafluoroethyl)estra-4,9-dien-3-one], for which the “highest plasma level (average for all 3 animals)” value in the data set with cardiovascular system (end of third infusion, i.v. 0.1, 0.33 and 1 mg/kg consecutive 30 minute infusions) came out at 1650 ng/mL. For the same compound, the “effects on the cardiovascular system (pulmonary artery pressure, systemic arterial blood pressure, heart rate, ECG)” value in the data set on cardiovascular system (i.v. 0.1, 0.33 and 1 mg/kg, in comparison with the control) was “no biologically relevant effects”. The Abortion rate turned out to be 40% in the data set with pregnant rats (daily dose 0.15 mg/kg s.c. or p.o.), 100% with pregnant rats (daily dose 0.5 mg/kg s.c. or p.o.), 100% in the data set with pregnant rats (daily dose 1.5 mg/kg s.c. or p.o.) and 100% with pregnant rats (daily dose 5.0 mg/kg s.c. or p.o.). The oxidation sensitivity entry in data set [1] is reported as “surprisingly low oxidation sensitivity”. The “stability under the influence of UV light” value in data set [1] is listed as “surprisingly high stability”. Besides, the “stability under thermal load” value in data set [1] is “surprisingly high stability under thermal load”. For the same compound, the “Progesterone receptor B (PR-B) Efficacy” value in data set [2] came out at 100%.
